Measured values as given in EP0345751A1, “Anti-retroviral diflourinated nucleosides” (MERRELL DOW PHARMACEUTICALS INC., priority 1988, dated 1989).

Test system: Moloney murine leukemia virus (MoLV)
Test: in vitro XC plaque assay (inhibition of growth and replication of murine leukemia virus in mouse SC-1 cells)
Assay type: cell-based
Settings: compound added 2 hours prior to virus; for Average No. of Foci/plate: Control 36 foci/plate
Experimental: This assay was performed according to the method of Rowe et al. (Virology, 1970, 42, 1136-39) as previously described by L. Hsu, et al. (J. Virological Methods, 1980, 1, 167-77) and T. L. Bowlin and M. R. Proffitt (J. Interferon Res., 1983, 3(1), 19-31). Mouse SC-1 cells (fibroblast) (10⁵) were seeded into each well of 6-well cluster plates (Costar #3506) in 4 ml Minimum Essential Medium (MEM) with 10% Fetal Calf Serum (FCS). Following an 18 hour incubation period (37°C), Moloney murine leukemia virus (MoLV) was applied at a predetermined titer to give optimal (i.e. countable) numbers of virus plaques. Compounds were added 2 hours prior to addition of the virus. Three days later the culture medium was removed, the SC-1 cell monolayers were exposed to UV irradiation (1800 ergs), and rat XC cells […] were seeded into each well in 4 ml MEM. Following an additional 3 day incubation (37°C), these cells were fixed with ethyl alcohol (95%) and stained with 0.3% crystal violet. Plaques were then counted under low magnification.

Compound	Average No. of Foci/plate (Concentration 0.0025 µg/ml)	Average No. of Foci/plate (Concentration 0.005 µg/ml)	Average No. of Foci/plate (Concentration 0.01 µg/ml)	Average No. of Foci/plate (Concentration 0.1 µg/ml)	inhibition at 0.0025 µg/mL (Murine leukemia virus, SC1, Concentration 0.0025 µg/ml)	inhibition at 0.005 µg/mL (Murine leukemia virus, SC1, Concentration 0.005 µg/ml)	inhibition at 0.01 µg/mL (Murine leukemia virus, SC1, Concentration 0.01 µg/ml)	inhibition at 0.1 µg/mL (Murine leukemia virus, SC1, Concentration 0.1 µg/ml)	Average No. of Foci/plate (Concentration 0.001 µg/ml)	inhibition at 0.001 µg/mL (Murine leukemia virus, SC1, Concentration 0.001 µg/ml)
Nc1ccn([C@@H]2O[C@H](CO)[C@@H](O)C2(F)F)c(=O)n1 [2′-Deoxy-2′,2′-Difluorocytidine, 2′-deoxy-2′,2′-difluorocytidine]	28	15	0	0	22%	58%	100%	100%		
Cc1cn([C@H]2C[C@H](N=[N+]=[N-])[C@@H](CO)O2)c(=O)[nH]c1=O [AZT, 3′-azido-3′-deoxythymidine, reference compound]									18	50%
